Experimental data taken from US20240166643A1, “IMIDAZO[1,2-A]PYRIDINE COMPOUNDS AND THEIR USE IN THERAPY” (Imperial College Innovations Limited, priority 2020, published 2024).

Experiments:
[1] = biological target: Human NMT1 (HsNMT1) (Homo sapiens, UniProt P30419); test: biochemical
[2] = tested on: SU-DHL-10 cells; test: Cell cytotoxicity in SU-DHL-10 cell line (CellTiter-Glo); assay type: cell-based; conditions: Homo sapiens, SU-DHL10; CellTiter-Glo, 48 h; read-out: SU-DHL-10 EC50
Procedure: Assay (c): Cell Cytotoxicity in SU-DHL-10 Cell Line
Cell Culture: SU-DHL-10 (ATCC CRL-2963) were cultured in RPMI-media (ATCC, 30-2001).
Cultures were maintained by the addition of fresh medium and inoculum of 8.0×10^4 to 2.0×10^5 cells/mL. Subculturing was done when the cell density was between 1.0×10^6 and 2.0×10^6 cells/mL.
Cell seeding: 5000 cells/well were plated in 384-white clear bottom plates (Greiner, 781098) for the assay in 20 μl growth media.
Top dose: 1 mM stocks of each compound was prepared in 100% DMSO and thereafter diluted 333.33 fold in growth media to obtain 3 μM (0.3% DMSO) mid stock of each compound, from which 10 μl was added to assay wells (with 20 μl cells) for a final concentration of 1 μM (0.1% DMSO). For subsequent dose-response: 1 mM stock was diluted 3 fold in DMSO before subjecting to above dilution pattern to obtain final 0.1% DMSO concentration.
Treatment: Cells were incubated with the compounds for 48 h at 37° C. in presence of 5% CO2.
Assay Procedure: The assay plate and its contents were equilibrated at room temperature for approximately 30 minutes. CellTiter-Glo® Reagent was added equal to the volume (1;1) of cell culture medium present in each well. The contents were mixed for 5 minutes on an orbital shaker to induce cell lysis. The plate was allowed to incubate at room temperature for 10 minutes to stabilize luminescent signal. The luminescence was recorded with an integration time of 0.25 seconds in EnVision 2104 Multilabel Plate Reader (Perkin Elmer).
Calculation: % Cytotoxicity was calculated considering 100% cell death in wells treated with 0.1% TritonX.

Chain of Human NMT1 (HsNMT1) (P30419 whole entry, looked up): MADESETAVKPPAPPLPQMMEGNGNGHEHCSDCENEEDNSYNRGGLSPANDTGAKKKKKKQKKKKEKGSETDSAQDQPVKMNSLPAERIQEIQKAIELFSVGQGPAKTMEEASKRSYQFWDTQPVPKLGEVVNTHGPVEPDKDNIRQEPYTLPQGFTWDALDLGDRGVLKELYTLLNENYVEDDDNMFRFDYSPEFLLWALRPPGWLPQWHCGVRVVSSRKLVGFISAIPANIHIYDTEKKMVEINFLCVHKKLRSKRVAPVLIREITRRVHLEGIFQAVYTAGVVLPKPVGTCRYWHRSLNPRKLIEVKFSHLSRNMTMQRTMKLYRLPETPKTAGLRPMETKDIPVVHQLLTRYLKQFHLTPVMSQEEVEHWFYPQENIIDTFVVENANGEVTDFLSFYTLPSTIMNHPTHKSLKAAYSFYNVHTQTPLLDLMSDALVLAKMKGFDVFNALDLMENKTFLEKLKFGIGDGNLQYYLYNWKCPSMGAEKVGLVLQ

Row | SMILES | IC50 [1] [µM] | EC50 [2] [µM]
1 | CCN(C(=O)C1CN(c2nc(N3CCNCC3)ncc2Cl)C1)C(C)(C)c1cnc2ccccn12 [Example 136, 1-(5-chloro-2-(piperazin-1-yl)pyrimidin-4-yl)-N-ethyl-N-(2-(imidazo[1,2-a]pyridin-3-yl)propan-2-yl)azetidine-3-carboxamide] | 0.007 | 0.161
2 | CCC1CN(c2ncc(Cl)c(N3CC(C(=O)NC(C)(C)c4cnc5ccccn45)C3)n2)CCN1 (stereo not shown) [Example 137, 1-(5-chloro-2-(3-ethylpiperazin-1-yl)pyrimidin-4-yl)-N-(2-(imidazo[1,2-a]pyridin-3-yl)propan-2-yl)azetidine-3-carboxamide] | 0.003 | 0.218
3 | C[C@@H]1CNCCN1c1ncc(Cl)c(N2CC(C(=O)N(C)C(C)(C)c3cnc4ccccn34)C2)n1 [Example 138, (R)-1-(5-chloro-2-(2-methylpiperazin-1-yl)pyrimidin-4-yl)-N-(2-(Imidazo[1,2-a]pyridin-3-yl)propan-2-yl)-N-methylazetidine-3-carboxamide] | 0.015 | 0.742
4 | C[C@@H]1CNCCN1c1ncc(Cl)c(N2CC(C(=O)NC(C)(C)c3cnc4ccccn34)C2)n1 [Example 141, (R)-1-(5-chloro-2-(2-methylpiperazin-1-yl)pyrimidin-4-yl)-N-(2-(Imidazo[1,2-a]pyridin-3-yl)propan-2-yl)azetidine-3-carboxamide] | 0.004 | 0.378
5 | C[C@@H]1CN(C)CCN1c1ncc(Cl)c(N2CC(C(=O)N(C)C(C)(C)c3cnc4ccccn34)C2)n1 [Example 142, (R)-1-(5-chloro-2-(2,4-dimethylpiperazin-1-yl)pyrimidin-4-yl)-N-(2-(imidazo[1,2-a]pyridin-3-yl)propan-2-yl)-N-methylazetidine-3-carboxamide] | 0.178 | 0.489
6 | CC1NCCN(c2ncc(Cl)c(N3CC(C(=O)NC(C)(C)c4cnc5ccccn45)C3)n2)C1C (stereo not shown) [Example 143, 1-(5-chloro-2-(2,3-dimethylpiperazin-1-yl)pyrimidin-4-yl)-N-(2-(Imidazo[1,2-a]pyridin-3-yl)propan-2-yl)azetidine-3-carboxamide] | 0.003 | 0.005
7 | CC(C)(NC(=O)C1CN(c2nc(N3CC4CCC(C3)N4)ncc2Cl)C1)c1cnc2ccccn12 [Example 144, 1-(2-(3,8-diazabicyclo[3.2.1]octan-3-yl)-5-chloropyrimidin-4-yl)-N-(2-(imidazo[1,2-a]pyridin-3-yl)propan-2-yl)azetidine-3-carboxamide] | 0.005 | 0.243
8 | CCN(C(=O)C1CN(c2nc(N3CCNC[C@@H]3C)ncc2Cl)C1)C(C)(C)c1cnc2ccccn12 [Example 145, (S)-1-(5-chloro-2-(2-methylpiperazin-1-yl)pyrimidin-4-yl)-N-ethyl-N-(2-(imidazo[1,2-a]pyridin-3-yl)propan-2-yl)azetidine-3-carboxamide] | 0.003 | 0.013
9 | CN(C(=O)C1CN(c2nc(N3CCNC4CC43)ncc2Cl)C1)C(C)(C)c1cnc2ccccn12 (stereo not shown) [Example 146, 1-(2-(2,5-diazabicyclo[4.1.0]heptan-2-yl)-5-chloropyrimidin-4-yl)-N-(2-(imidazo[1,2-a]pyridin-3-yl)propan-2-yl)-N-methylazetidine-3-carboxamide] | 0.061 | 0.597
10 | CC[C@H]1CNCCN1c1ncc(Cl)c(N2CC(C(=O)NC(C)(C)c3cnc4ccccn34)C2)n1 [Example 147, (S)-1-(5-chloro-2-(2-ethylpiperazin-1-yl)pyrimidin-4-yl)-N-(2-(imidazo[1,2-a]pyridin-3-yl)propan-2-yl)azetidine-3-carboxamide] | 0.002 | 0.012
11 | CC[C@H]1CNCCN1c1ncc(Cl)c(N2CC(C(=O)N(C)C(C)(C)c3cnc4ccccn34)C2)n1 [Example 148, (S)-1-(5-chloro-2-(2-ethylpiperazin-1-yl)pyrimidin-4-yl)-N-(2-(Imidazo[1,2-a]pyridin-3-yl)propan-2-yl)-N-methylazetidine-3-carboxamide] | 0.005 | 0.369
